The values below come from ChEMBL document CHEMBL5724914, “Linking interpersonal differences in gut microbiota composition and drug biotransformation activity” (2024).

Data set [1] in a line: The drug is tested on Z-028 corresponding to mouse gut metagenome with ENA study accession number: PRJEB37062 and ENA sample accession number: ERS12561827 for biotransformation under anaerobic condition. The drug concentrations were measured over 9 timepoints collected between 0 and 24 hours of incubation by liquid-chromatography-coupled mass spectrometry (LC–MS). The note with it: 2 µM.

Data set [2] in a line: The drug is tested on Z-026 corresponding to metagenome with ENA study accession number: PRJEB37062 and ENA sample accession number: ERS12561825 for biotransformation under anaerobic condition. The drug concentrations were measured over 9 timepoints collected between 0 and 24 hours of incubation by liquid-chromatography-coupled mass spectrometry (LC–MS). The following applies: 2 µM.

The nature of data set [3]: The drug is tested on Z-017 corresponding to mouse gut metagenome with ENA study accession number: PRJEB37062 and ENA sample accession number: ERS12561816 for biotransformation under anaerobic condition. The drug concentrations were measured over 9 timepoints collected between 0 and 24 hours of incubation by liquid-chromatography-coupled mass spectrometry (LC–MS). The following applies: 2 µM.

Data set [4] is described as follows: The drug is tested on Z-012 corresponding to metagenome with ENA study accession number: PRJEB37062 and ENA sample accession number: ERS12561812 for biotransformation under anaerobic condition. The drug concentrations were measured over 9 timepoints collected between 0 and 24 hours of incubation by liquid-chromatography-coupled mass spectrometry (LC–MS). The note with it: 2 µM.

Data set [5] can be described thus: The drug is tested on Z-006 corresponding to mouse gut metagenome with ENA study accession number: PRJEB37062 and ENA sample accession number: ERS12561806 for biotransformation under anaerobic condition. The drug concentrations were measured over 9 timepoints collected between 0 and 24 hours of incubation by liquid-chromatography-coupled mass spectrometry (LC–MS). The note with it: 2 µM.

A short description of data set [6]: The drug is tested on Z-003 corresponding to pig gut metagenome with ENA study accession number: PRJEB37062 and ENA sample accession number: ERS12561803 for biotransformation under anaerobic condition. The drug concentrations were measured over 9 timepoints collected between 0 and 24 hours of incubation by liquid-chromatography-coupled mass spectrometry (LC–MS). The note with it: 2 µM.

A short description of data set [7]: The drug is tested on WLS-310 corresponding to human gut metagenome with ENA study accession number: PRJEB37062 and ENA sample accession number: ERS12561785 for biotransformation under anaerobic condition. The drug concentrations were measured over 9 timepoints collected between 0 and 24 hours of incubation by liquid-chromatography-coupled mass spectrometry (LC–MS). The following applies: 2 µM.

Data set [8] is described as follows: The drug is tested on WLS-240 corresponding to human gut metagenome with ENA study accession number: PRJEB37062 and ENA sample accession number: ERS12561773 for biotransformation under anaerobic condition. The drug concentrations were measured over 9 timepoints collected between 0 and 24 hours of incubation by liquid-chromatography-coupled mass spectrometry (LC–MS). The note with it: 2 µM.

The conditions of data set [9]: human gut metagenome, 24 h, 2 µM.
For data set [10] the following is noted: human gut metagenome, 24 h, 2 µM. The source holds these as a separate data set.
The conditions of data set [11]: human gut metagenome, 24 h, 2 µM. The source holds these as a separate data set.
The conditions of data set [12]: human gut metagenome, 24 h, 2 µM. This is another data set of the same source.
The conditions of data set [13]: human gut metagenome, 24 h, 2 µM. The source holds these as a separate data set.
For data set [14] the following is noted: human gut metagenome, 24 h, 2 µM. This is another data set of the same source.
The conditions of data set [15]: human gut metagenome, 24 h, 2 µM. This is another data set of the same source.
For data set [16] the following is noted: human gut metagenome, 24 h, 2 µM. The source holds these as a separate data set.
For data set [17] the following is noted: human gut metagenome, 24 h, 2 µM. This is another data set of the same source.
For data set [18] the following is noted: human gut metagenome, 24 h, 2 µM. The source holds these as a separate data set.
The conditions of data set [19]: human gut metagenome, 24 h, 2 µM. This is another data set of the same source.
For data set [20] the following is noted: human gut metagenome, 24 h, 2 µM. This is another data set of the same source.

SMILES strings stand for the structures.
Note: call rule not given here.

Take `CCN(CC)CCOC(=O)C(Cc1cccc2ccccc12)CC1CCCO1.O=C(O)C(=O)O` (stereo not given) [NAFRONYL OXALATE]: the “Bacterial Biotransformation” value in data set [1] is given as “Compound metabolized”; in data set [2], “Compound NOT metabolized”; in data set [3] it was “Compound NOT metabolized”; in data set [4], “Compound metabolized”; in [5], “Compound metabolized”; in data set [6], “Compound metabolized”. In addition, the “Bacterial Biotransformation” value in data set [7], in data set [8], in data set [9], in [10], in data set [11] and in [12] was “Compound metabolized” throughout. Further, the “Bacterial Biotransformation” value in data set [13] was “Compound metabolized”; in data set [14] it was “Compound metabolized”; in [15], “Compound NOT metabolized”; in data set [16], “Compound NOT metabolized”; in data set [17] it was “Compound metabolized”; in data set [18], “Compound metabolized”. For the same molecule, the “Bacterial Biotransformation” value in data set [19] and in data set [20] was “Compound metabolized” in each case.
Turning to `C=CCN1CC[C@]23c4c5ccc(O)c4O[C@H]2C(=O)CC[C@@]3(O)[C@H]1C5` [NALOXONE], the “Bacterial Biotransformation” value in data set [1] is recorded as “Compound NOT metabolized”; in [2] it was “Compound NOT metabolized”; in [3], “Compound NOT metabolized”; in [4], “Compound NOT metabolized”; in [5], “Compound NOT metabolized”; in data set [6], “Compound metabolized”. In addition, the “Bacterial Biotransformation” value in [7], in [8], in data set [9], in data set [10], in data set [11] and in data set [12] was “Compound NOT metabolized” in each case. Moreover, the “Bacterial Biotransformation” value in data set [13], in data set [14], in data set [15], in data set [16], in [17] and in data set [18] was “Compound NOT metabolized” in each case. For the same molecule, the “Bacterial Biotransformation” value in data set [19] and in data set [20] was “Compound NOT metabolized” each time.
Regarding `CCc1nn(CCCN2CCN(c3cccc(Cl)c3)CC2)c(=O)n1CCOc1ccccc1` [NEFAZODONE], the “Bacterial Biotransformation” value in data set [1], in data set [2], in data set [3], in [4], in data set [5] and in data set [6] was “Compound NOT metabolized” throughout. The “Bacterial Biotransformation” value was “Compound metabolized” in data set [7]; “Compound metabolized” in [8]; “Compound NOT metabolized” in [9]; “Compound NOT metabolized” in data set [10]; “Compound NOT metabolized” in data set [11]; “Compound metabolized” in data set [12]. Besides, the “Bacterial Biotransformation” value was “Compound NOT metabolized” in data set [13]; “Compound metabolized” in [14]; “Compound NOT metabolized” in data set [15]; “Compound NOT metabolized” in data set [16]; “Compound metabolized” in data set [17]; “Compound NOT metabolized” in data set [18]. The “Bacterial Biotransformation” value in data set [19] and in data set [20] was “Compound metabolized” each time.
Consider `CN1CCOC(c2ccccc2)c2ccccc2C1` (stereo not given) [NEFOPAM], for which the “Bacterial Biotransformation” value in data set [1], in data set [2], in data set [3], in [4], in data set [5] and in data set [6] was “Compound NOT metabolized” each time. For the same molecule, the “Bacterial Biotransformation” value in data set [7] is “Compound NOT metabolized”; in data set [8], “Compound NOT metabolized”; in data set [9] it was “Compound metabolized”; in [10], “Compound NOT metabolized”; in data set [11], “Compound NOT metabolized”; in [12] it was “Compound metabolized”. The “Bacterial Biotransformation” value in data set [13] is given as “Compound metabolized”; in [14], “Compound NOT metabolized”; in data set [15] it was “Compound NOT metabolized”; in data set [16] it was “Compound metabolized”; in data set [17] it was “Compound metabolized”; in [18] it was “Compound metabolized”. The “Bacterial Biotransformation” value in [19] is reported as “Compound NOT metabolized”; in [20], “Compound metabolized”.
Turning to `Cc1ccnc2c1NC(=O)c1cccnc1N2C1CC1` [NEVIRAPINE], the “Bacterial Biotransformation” value in data set [1], in [2], in data set [3], in [4], in [5] and in data set [6] was “Compound NOT metabolized” in each case. In addition, the “Bacterial Biotransformation” value is reported as “Compound metabolized” in data set [7]; “Compound metabolized” in [8]; “Compound NOT metabolized” in data set [9]; “Compound NOT metabolized” in data set [10]; “Compound NOT metabolized” in data set [11]; “Compound metabolized” in [12]. The “Bacterial Biotransformation” value in data set [13] is recorded as “Compound NOT metabolized”; in [14], “Compound metabolized”; in [15], “Compound NOT metabolized”; in data set [16] it was “Compound metabolized”; in [17], “Compound metabolized”; in data set [18], “Compound NOT metabolized”. The results for the “Bacterial Biotransformation” value in [19] and in [20] were “Compound NOT metabolized” and “Compound metabolized”, respectively.
As to `CO[C@]12C[C@@H](COC(=O)c3cncc(Br)c3)CN(C)[C@@H]1Cc1cn(C)c3cccc2c13` [NICERGOLINE], the “Bacterial Biotransformation” value in data set [1] was “Compound metabolized”; in data set [2], “Compound metabolized”; in data set [3], “Compound NOT metabolized”; in data set [4], “Compound NOT metabolized”; in data set [5], “Compound metabolized”; in data set [6], “Compound metabolized”. For the same molecule, the “Bacterial Biotransformation” value in data set [7], in data set [8], in data set [9], in data set [10], in data set [11] and in data set [12] was “Compound NOT metabolized” each time. Also, the “Bacterial Biotransformation” value is recorded as “Compound NOT metabolized” in data set [13]; “Compound metabolized” in data set [14]; “Compound NOT metabolized” in [15]; “Compound metabolized” in data set [16]; “Compound metabolized” in [17]; “Compound NOT metabolized” in data set [18]. Further, the figures for the “Bacterial Biotransformation” value in [19] and in data set [20] were “Compound NOT metabolized” and “Compound metabolized”, respectively.
